Values belong to the compound of their own block, whether it stands above or below them. Calls of active or inactive are those of the source.
Key:
[1] = target: T1, Sentrin-specific protease 8 (Homo sapiens, UniProt Q96LD8); type: functional
T1 sequence (Q96LD8 whole entry): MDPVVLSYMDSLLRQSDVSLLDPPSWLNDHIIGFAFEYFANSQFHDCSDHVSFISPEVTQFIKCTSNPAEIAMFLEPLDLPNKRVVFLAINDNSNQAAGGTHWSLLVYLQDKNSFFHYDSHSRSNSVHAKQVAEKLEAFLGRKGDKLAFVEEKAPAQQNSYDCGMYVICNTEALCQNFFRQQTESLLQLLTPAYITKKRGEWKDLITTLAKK

[2] = target: T2, Rac GTPase-activating protein 1 (Homo sapiens, UniProt Q9H0H5); test: blockers of MgcRacGAP-driven Rac1 GTP hydrolysis – biochemical, ADP Hunter fluorescence, primary and confirmatory, confirmation (AID 624330); type: functional
T2 sequence (Q9H0H5 whole entry): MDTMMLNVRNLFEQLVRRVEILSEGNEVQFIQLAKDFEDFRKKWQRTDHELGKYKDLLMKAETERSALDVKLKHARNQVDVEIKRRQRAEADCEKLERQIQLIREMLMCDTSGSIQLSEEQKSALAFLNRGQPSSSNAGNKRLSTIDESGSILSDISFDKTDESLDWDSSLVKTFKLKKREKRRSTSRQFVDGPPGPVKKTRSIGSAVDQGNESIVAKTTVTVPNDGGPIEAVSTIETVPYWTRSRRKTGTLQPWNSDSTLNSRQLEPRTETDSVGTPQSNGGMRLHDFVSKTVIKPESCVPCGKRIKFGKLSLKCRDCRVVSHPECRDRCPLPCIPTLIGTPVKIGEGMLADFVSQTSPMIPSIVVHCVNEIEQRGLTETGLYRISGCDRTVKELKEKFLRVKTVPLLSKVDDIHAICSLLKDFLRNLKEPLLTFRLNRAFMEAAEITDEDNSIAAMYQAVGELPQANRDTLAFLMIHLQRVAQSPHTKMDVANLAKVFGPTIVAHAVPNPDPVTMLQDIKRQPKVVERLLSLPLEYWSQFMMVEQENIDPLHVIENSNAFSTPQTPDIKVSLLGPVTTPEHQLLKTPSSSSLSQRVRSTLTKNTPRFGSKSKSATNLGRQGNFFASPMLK

[3] = target: T3, Sentrin-specific protease 7 (Homo sapiens, UniProt Q9BQF6); type: functional;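 note: Luminescence-based dose-response confirmation of ultra-high-throughput screening hits, measuring inhibition of SENP7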
T3 sequence (Q9BQF6 whole entry): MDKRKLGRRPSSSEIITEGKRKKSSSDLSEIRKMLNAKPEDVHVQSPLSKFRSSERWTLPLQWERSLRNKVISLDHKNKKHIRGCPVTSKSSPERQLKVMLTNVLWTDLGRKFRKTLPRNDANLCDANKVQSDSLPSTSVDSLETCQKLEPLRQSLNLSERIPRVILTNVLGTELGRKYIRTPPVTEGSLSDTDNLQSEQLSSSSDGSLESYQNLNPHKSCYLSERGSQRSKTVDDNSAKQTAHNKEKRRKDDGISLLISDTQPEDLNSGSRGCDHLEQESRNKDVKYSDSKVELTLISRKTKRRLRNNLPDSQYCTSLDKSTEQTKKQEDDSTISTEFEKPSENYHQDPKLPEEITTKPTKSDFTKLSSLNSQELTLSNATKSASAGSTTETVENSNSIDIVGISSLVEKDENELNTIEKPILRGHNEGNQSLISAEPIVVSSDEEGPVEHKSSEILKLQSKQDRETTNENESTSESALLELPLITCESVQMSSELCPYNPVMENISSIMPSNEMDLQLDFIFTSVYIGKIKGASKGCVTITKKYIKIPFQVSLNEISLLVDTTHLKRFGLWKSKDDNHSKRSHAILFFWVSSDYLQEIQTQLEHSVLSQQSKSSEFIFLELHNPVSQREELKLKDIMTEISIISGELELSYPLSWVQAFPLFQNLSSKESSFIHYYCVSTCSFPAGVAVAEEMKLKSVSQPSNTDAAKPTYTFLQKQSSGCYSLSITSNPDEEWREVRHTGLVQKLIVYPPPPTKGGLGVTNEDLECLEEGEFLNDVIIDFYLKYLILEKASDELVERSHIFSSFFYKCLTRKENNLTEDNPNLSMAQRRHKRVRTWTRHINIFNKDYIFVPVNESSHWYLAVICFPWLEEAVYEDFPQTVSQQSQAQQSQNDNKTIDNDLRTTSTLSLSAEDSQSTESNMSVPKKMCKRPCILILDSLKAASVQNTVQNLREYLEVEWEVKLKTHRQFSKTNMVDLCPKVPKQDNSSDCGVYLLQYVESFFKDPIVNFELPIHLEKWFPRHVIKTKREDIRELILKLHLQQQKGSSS

Caspase-6 = target: T4, Caspase-6 (Homo sapiens, UniProt P55212); test: inhibition of CASP6 peptide cleavage – biochemical, VEID-R110 fluorescence, cherry-pick, dose response (AID 720632)
T4 sequence (P55212 whole entry): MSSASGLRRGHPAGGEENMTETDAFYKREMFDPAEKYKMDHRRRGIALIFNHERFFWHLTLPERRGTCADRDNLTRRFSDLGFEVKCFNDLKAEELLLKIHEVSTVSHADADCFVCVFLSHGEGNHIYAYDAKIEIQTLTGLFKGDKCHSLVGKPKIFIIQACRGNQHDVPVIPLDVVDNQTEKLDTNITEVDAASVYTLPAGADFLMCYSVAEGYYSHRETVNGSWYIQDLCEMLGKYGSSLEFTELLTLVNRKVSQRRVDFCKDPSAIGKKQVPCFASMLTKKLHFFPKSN

[4] = target: T1, Sentrin-specific protease 8; type: functional; remark: listed apart in the source
[5] = target: cAMP-dependent protein kinase catalytic subunit PRKX (Homo sapiens, UniProt P51817); type: functional
[6] = target: Dual specificity mitogen-activated protein kinase kinase 2 (Homo sapiens, UniProt P36507); test: Navigating the Kinome. Panel member name: MAP2K2; type: functional
Activated CDC42 kinase 1 = Activated CDC42 kinase 1 (Homo sapiens, UniProt Q07912); test: Navigating the Kinome. Panel member name: ACK1; type: functional
[7] = target: High affinity nerve growth factor receptor (Homo sapiens, UniProt P04629); type: functional;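 note: NTRK1 tested as one member of a kinome-wide profiling panel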
[8] = target: Mitogen-activated protein kinase kinase kinase kinase 2 (Homo sapiens, UniProt Q12851); type: functional;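 note: measured as one member of a kinome-wide kinase panel, with MAP4K2 as the panel entry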
[9] = target: Mitogen-activated protein kinase 9 (Homo sapiens, UniProt P45984); type: functional;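 note: value from a kinome panel profiling assay, MAPK9 panel entry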
[10] = target: Death-associated protein kinase 3 (Homo sapiens, UniProt O43293); type: functional;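 note: measured as one member of a kinome-wide profiling panel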
Chain of Death-associated protein kinase 3 (O43293 whole entry): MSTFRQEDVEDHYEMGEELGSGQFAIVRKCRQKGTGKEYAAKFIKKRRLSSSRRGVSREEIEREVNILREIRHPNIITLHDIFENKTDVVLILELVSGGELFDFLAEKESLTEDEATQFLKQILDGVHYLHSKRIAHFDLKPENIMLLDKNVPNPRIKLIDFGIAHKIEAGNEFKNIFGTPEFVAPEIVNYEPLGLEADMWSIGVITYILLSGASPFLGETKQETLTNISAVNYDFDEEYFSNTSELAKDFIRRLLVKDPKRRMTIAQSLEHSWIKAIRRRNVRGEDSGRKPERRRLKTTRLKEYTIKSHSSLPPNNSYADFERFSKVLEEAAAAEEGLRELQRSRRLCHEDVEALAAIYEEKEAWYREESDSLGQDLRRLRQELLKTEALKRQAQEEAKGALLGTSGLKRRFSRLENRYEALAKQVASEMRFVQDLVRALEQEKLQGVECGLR

Chain of Dual specificity mitogen-activated protein kinase kinase 2 (P36507 whole entry): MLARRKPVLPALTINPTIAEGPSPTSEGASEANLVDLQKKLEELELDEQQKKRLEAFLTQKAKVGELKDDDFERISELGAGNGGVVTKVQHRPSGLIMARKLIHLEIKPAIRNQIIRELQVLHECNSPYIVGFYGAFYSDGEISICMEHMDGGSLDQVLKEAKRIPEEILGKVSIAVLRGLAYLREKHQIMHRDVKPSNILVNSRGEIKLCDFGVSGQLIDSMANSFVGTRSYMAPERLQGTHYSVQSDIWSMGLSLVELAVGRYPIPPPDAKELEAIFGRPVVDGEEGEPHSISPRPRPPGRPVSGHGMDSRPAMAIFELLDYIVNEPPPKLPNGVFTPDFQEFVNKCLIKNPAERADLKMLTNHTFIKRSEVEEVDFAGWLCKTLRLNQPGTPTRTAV
Chain of High affinity nerve growth factor receptor (P04629 whole entry): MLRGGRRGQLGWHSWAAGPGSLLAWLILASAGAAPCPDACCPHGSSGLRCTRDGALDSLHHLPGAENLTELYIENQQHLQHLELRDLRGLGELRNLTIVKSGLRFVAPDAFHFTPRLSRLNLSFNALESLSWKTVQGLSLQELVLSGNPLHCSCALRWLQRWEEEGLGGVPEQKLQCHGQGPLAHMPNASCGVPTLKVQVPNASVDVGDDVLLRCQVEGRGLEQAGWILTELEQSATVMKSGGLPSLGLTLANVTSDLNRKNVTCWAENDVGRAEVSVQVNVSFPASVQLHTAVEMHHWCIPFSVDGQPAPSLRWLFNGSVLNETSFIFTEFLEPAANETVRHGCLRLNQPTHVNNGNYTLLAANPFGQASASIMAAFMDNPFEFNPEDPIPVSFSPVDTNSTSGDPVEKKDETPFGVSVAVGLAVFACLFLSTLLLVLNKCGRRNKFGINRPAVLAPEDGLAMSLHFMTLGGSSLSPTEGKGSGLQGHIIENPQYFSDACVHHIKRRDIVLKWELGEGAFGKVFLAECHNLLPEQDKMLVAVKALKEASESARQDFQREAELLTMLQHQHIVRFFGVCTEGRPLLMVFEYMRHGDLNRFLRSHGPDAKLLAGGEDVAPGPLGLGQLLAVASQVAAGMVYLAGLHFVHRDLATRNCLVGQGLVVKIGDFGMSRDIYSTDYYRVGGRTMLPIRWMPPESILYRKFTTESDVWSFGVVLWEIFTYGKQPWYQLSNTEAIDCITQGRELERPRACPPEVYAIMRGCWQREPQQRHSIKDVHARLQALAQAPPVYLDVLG
Chain of cAMP-dependent protein kinase catalytic subunit PRKX (P51817 whole entry): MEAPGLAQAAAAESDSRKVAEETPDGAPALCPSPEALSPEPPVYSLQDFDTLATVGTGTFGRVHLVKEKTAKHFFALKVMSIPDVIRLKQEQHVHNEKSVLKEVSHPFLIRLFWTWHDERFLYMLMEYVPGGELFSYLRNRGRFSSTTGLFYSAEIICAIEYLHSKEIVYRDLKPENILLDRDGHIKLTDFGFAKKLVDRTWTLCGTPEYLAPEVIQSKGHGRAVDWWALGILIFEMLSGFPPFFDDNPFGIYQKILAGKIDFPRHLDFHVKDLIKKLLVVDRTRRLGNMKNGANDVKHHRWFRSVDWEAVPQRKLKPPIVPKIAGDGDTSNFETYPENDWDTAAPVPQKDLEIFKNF
Chain of Activated CDC42 kinase 1 (Q07912 whole entry): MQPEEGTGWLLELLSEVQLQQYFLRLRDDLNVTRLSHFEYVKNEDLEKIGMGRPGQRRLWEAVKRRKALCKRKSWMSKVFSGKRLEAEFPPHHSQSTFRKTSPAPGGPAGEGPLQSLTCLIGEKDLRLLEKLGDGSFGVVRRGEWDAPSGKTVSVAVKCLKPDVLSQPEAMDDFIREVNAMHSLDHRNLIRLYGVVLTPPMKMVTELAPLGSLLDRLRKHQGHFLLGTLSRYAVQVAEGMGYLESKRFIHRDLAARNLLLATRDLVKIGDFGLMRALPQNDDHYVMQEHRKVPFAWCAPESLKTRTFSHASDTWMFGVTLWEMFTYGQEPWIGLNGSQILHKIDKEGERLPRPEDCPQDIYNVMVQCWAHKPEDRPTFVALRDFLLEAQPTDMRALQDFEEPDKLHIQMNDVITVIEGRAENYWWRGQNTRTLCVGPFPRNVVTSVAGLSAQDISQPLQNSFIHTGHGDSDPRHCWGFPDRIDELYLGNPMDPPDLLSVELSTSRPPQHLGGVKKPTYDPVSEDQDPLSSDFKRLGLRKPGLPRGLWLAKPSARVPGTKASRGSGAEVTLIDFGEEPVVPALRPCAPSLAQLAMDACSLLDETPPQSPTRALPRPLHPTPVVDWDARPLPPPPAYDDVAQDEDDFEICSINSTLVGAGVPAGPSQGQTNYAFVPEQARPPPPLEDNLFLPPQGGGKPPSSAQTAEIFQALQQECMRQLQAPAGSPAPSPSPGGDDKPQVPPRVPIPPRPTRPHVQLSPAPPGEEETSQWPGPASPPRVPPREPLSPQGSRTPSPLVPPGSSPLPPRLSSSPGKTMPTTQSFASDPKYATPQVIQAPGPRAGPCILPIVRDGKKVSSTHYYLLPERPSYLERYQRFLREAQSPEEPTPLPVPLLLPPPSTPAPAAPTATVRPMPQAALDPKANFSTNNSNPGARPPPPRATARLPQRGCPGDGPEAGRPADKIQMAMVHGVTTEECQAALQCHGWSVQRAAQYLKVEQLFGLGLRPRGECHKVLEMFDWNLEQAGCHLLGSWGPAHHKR
Chain of Mitogen-activated protein kinase kinase kinase kinase 2 (Q12851 whole entry): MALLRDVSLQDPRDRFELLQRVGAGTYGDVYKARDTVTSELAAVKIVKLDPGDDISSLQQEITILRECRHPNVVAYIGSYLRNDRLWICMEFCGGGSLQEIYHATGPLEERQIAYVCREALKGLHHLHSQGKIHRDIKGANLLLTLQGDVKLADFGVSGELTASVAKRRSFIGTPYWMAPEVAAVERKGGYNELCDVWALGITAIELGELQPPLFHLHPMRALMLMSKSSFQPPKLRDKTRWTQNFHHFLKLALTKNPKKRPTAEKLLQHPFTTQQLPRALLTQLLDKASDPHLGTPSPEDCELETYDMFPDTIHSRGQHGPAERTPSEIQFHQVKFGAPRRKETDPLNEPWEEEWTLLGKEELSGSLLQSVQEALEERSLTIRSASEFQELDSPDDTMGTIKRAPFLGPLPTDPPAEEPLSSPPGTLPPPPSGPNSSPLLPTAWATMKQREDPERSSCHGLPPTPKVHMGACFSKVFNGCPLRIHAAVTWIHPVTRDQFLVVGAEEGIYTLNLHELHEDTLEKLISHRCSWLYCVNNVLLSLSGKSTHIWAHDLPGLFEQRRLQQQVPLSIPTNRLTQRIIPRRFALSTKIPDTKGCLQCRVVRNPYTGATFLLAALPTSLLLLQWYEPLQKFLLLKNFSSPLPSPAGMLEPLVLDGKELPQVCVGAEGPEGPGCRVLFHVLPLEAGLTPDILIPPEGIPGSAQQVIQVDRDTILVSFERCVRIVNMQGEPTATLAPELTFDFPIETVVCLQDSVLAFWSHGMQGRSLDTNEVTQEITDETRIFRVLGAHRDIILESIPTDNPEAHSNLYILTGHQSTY
Chain of Mitogen-activated protein kinase 9 (P45984 whole entry): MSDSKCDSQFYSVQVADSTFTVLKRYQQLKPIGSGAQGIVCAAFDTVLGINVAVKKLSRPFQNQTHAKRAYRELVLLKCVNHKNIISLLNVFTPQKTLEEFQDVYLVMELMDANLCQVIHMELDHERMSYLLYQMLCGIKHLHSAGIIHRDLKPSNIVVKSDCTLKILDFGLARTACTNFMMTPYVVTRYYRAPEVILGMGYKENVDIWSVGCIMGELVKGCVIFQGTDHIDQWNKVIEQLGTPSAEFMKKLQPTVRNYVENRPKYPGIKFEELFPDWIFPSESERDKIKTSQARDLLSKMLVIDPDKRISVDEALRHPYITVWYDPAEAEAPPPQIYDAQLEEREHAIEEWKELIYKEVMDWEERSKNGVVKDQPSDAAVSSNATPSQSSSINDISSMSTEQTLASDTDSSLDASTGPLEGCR

SMILES: CC(=O)N(C1=C(Cl)C(=O)c2ccccc2C1=O)c1ccc(C(=O)O)cc1
IC50 [1]: 5.99 µM (active) | IC50 [2]: 165 µM (active) | IC50 [3]: 8.9 µM (active)

SMILES: CC1(C)C=C2C(=NN(c3ccccc3)C(N)=C2C#N)CO1
AC50 (Caspase-6): 1.07 µM (active) | IC50 [4]: 0.0173 µM (active)

Ki [5]: > 3.16 µM (inactive) | Ki [6]: > 3.98 µM (inactive) | Ki (Activated CDC42 kinase 1): > 3.98 µM (inactive) | Ki [7]: > 3.16 µM (inactive) | Ki [8]: > 2.51 µM (inactive) | Ki [9]: > 3.98 µM (inactive)
SMILES: Cc1ccc(-c2cc3nc(Br)cnc3[nH]2)cc1
Ki [10]: > 5.01 µM (inactive)

From ChEMBL document CHEMBL1201862, “PubChem BioAssay data set” (2004)
